From patent US20130023504A1, “Modulation of Prostaglandin/Cyclooxygenase Metabolic Pathways” (HUNTER-FLEMING LIMITED, priority 2006, published 2013)
Where “and” joins values, the source holds several entries; their conditions need not be identical. Equal values may be shown once. Marks after values point to notes of the source that are not given here.

Legend:
rat sensory neurones = assay: Neurite growth of sensory neurones in primary culture (anti β-Tubulin, In Cell Analyzer); format: cell-based
Description: Rat sensory neurones were prepared according to the method described by Hall et al. 1997 (Hall A K, Ai X, Hickman G E, MacPhedran S E, Nduaguba C O, Robertson C P. The generation of neuronal heterogeneity in a rat sensory ganglion. J. Neurosci. 1997 Apr. 15; 17(8):2775-84). Briefly, female rats (15 days gestation) were killed by cervical dislocation (Rats Wistar; Janvier, Le Genest-St-Isle, France) and the foetuses removed from the uterus. Their spinal cords with the dorsal root ganglia (DRG) were removed and placed in ice-cold medium of Leibovitz (L15, Fisher 11415-049) containing Penicillin 50 Ul/ml-Streptomycin 50 pg/ml (PS, 1%) and bovine serum albuminutes (BSA 1%, Sigma A6003). The DRG were recovered and dissociated by trypsinisation for 20 minutes at 37° C. (trypsin EDTA 10×, 10%, Fisher 15400054) diluted in PBS without calcium and magnesium (Fisher 2007-03). The reaction was stopped by addition of Dulbecco modified Eagle medium (DMEM, Fisher 21969-035) containing DNase I grade II (0.1 mg/ml Roche diagnostic 104159) and foetal bovine serum (FBS 10%, Fisher 10270-098). The cell suspension was triturated with a 10 ml pipette and centrifuged at 350×g for 10 minutes at room temperature. The pellet of dissociated cells was then resuspended in defined culture medium.
Viable cells were counted in a Neubauer cytometer using the trypan blue exclusion test (Sigma) and seeded at a density of 25 000 cells/well in 96 well-plates (Nunc). Wells were pre-coated with poly-L-lysine (10 μg/ml, Sigma P2636) in ultra pure sterile water (Merck Eurolab 60759.01).
Cells were allowed to adhere for 2 hours and maintained in a humidified incubator at 37° C. in 5% CO2/95% air atmosphere.
The culture medium was changed into a defined culture medium after a 12 hours incubation period following the conditions described below:
NGF 50 ng/ml and 10 ng/ml (in 0.1% DMSO)
After 6 hours, 12 hours and 24 hours of incubation with 7β-OH EPIA, cells were fixed for 5 minutes in an ethanol/acetic acid solution (95%/5%) at −20° C. and rinsed 3 times in PBS.
Motor neurones and sensory neurones were labelled by monoclonal anti β-Tubulin antibody (Sigma T8660) diluted at 1:400 in incubation solution (PBS with 5% of FCS and 0.1% of saponin, Sigma S-7900). This antibody specifically labels neurone cell bodies and neurites.
After 2 hours of incubation, the cells were washed in PBS and incubated with Alexa Fluor 488 goat anti mouse IgG (Molecular Probes A11001) diluted at 1:300 in incubation solution to reveal the 8-Tubulin III antibodies.
Analysis of the total length of neurones labelled with anti β-Tubulin antibodies (neurones) were carried out using In Cell Analyzer 1000 3.2.Workstation software.
The results were expressed in percentage compared to the vehicle. Comparison of groups was carried out using the unpaired T test.

[1] = tested on: collagen-induced arthritis; assay: Collagen-induced arthritis (CII/CFA), histopathology, clinical score, knee homogenate prostaglandins; format: in vivo, mouse
PC-12 cells = assay: Ischaemia (oxygen-glucose deprivation)-induced cell death in NGF-differentiated PC-12 cells, Trypan Blue exclusion; format: cell-based; conditions: vs. ischemia alone
Description: PC-12 cells were maintained on flasks coated with Collagen typel in PC-12 media with the following composition; RPMI 1640 without L-glutamine with 2 mM L-glutamine, 10 mM HEPES, 1 mM Sodium Pyruvate, additional glucose to give a final concentration of 4.5 g/L (RPMI normally has 2 g/L), 10% heat inactivated horse serum, 5% foetal calf serum and 50 units of penicillin/streptomycin. Media was changed every 2 days.
Confluent cultures of PC-12 cells were differentiated by culturing for 7 days in PC-12 medium without serum but with 50 ng/mlNGF (PC-12 NGF media). The cells were harvested, washed, counted and 1×10^5 PC-12 cells/well were plated overnight in a micro titre plate in glucose free PC-12 NGF medium. The medium was then changed to glucose-free PC-12 NGF medium containing the compounds to be tested and the plates left under normoxic conditions for 30 minutes.
During this stage, the media and test substances for the anoxic exposure were placed in a chamber and de-oxygenated with 95% N2/5% CO2. The media in the plates was changed with the de-oxygenated media and the plates then placed in an anaerobic chamber gassed with 95% N2 5% CO2 for 10 minutes before being sealed and incubated at 37° C. overnight (18 hours). For normoxia controls, the cells were treated identically to ischemic treatments except that all incubations were in 5% CO2/95% air.
Viability was determined using Trypan Blue exclusion.

SMILES: CC12CCC3C(C1CCC2=O)[C@@H](O)C[C@H]1C[C@@H](O)CCC31C (stereo partly drawn) [Compound 7β-OH-EPIA, 7β-hydroxy-EPIAndrosterone]
- Neurites length per field, % Vehicle (rat sensory neurones; 10^−4 M, 6 hours): 101%
- Neurites length per field, Mean (rat sensory neurones; 10^−4 M, 6 hours): 103.2 μm
- Neurites length per field, % Vehicle (rat sensory neurones; 10^−4 M, 12 hours): 97%
- Neurites length per field, Mean (rat sensory neurones; 10^−4 M, 12 hours): 290.3 μm
- Neurites length per field, % Vehicle (rat sensory neurones; 10^−4 M, 24 hours): 104%
- Neurites length per field, Mean (rat sensory neurones; 10^−4 M, 24 hours): 228.6 μm
- Neurites length per field, % Vehicle (rat sensory neurones; 10^−5 M, 6 hours): 112%
- Neurites length per field, Mean (rat sensory neurones; 10^−5 M, 6 hours): 114.8 μm
- Neurites length per field, % Vehicle (rat sensory neurones; 10^−5 M, 12 hours): 108%
- Neurites length per field, Mean (rat sensory neurones; 10^−5 M, 12 hours): 321.0 μm
- Neurites length per field, % Vehicle (rat sensory neurones; 10^−5 M, 24 hours): 111%
- Neurites length per field, Mean (rat sensory neurones; 10^−5 M, 24 hours): 244.8 μm
- Neurites length per field, % Vehicle (rat sensory neurones; 10^−6 M, 6 hours): 96%
- Neurites length per field, Mean (rat sensory neurones; 10^−6 M, 6 hours): 97.7 μm
- Neurites length per field, % Vehicle (rat sensory neurones; 10^−6 M, 12 hours): 96%
- Neurites length per field, Mean (rat sensory neurones; 10^−6 M, 12 hours): 287.0 μm
- Neurites length per field, % Vehicle (rat sensory neurones; 10^−6 M, 24 hours): 86%
- Neurites length per field, Mean (rat sensory neurones; 10^−6 M, 24 hours): 189.9 μm
- Neurites length per field, % Vehicle (rat sensory neurones; 10^−7 M, 6 hours): 149%
- Neurites length per field, Mean (rat sensory neurones; 10^−7 M, 6 hours): 151.8 μm
- Neurites length per field, % Vehicle (rat sensory neurones; 10^−7 M, 6 hours, listed as 7β-OH EPIA): 171%
- Neurites length per field, % Vehicle (rat sensory neurones; 10^−7 M, 12 hours): 134%
- Neurites length per field, Mean (rat sensory neurones; 10^−7 M, 12 hours): 398.4 μm
- Neurites length per field, % Vehicle (rat sensory neurones; 10^−7 M, 24 hours): 173%
- Neurites length per field, Mean (rat sensory neurones; 10^−7 M, 24 hours): 380.8 μm
- Neurites length per field, % Vehicle (rat sensory neurones; 10^−8 M, 6 hours): 176%
- Neurites length per field, Mean (rat sensory neurones; 10^−8 M, 6 hours): 179.3 μm
- Neurites length per field, % Vehicle (rat sensory neurones; 10^−8 M, 12 hours): 123%
- Neurites length per field, Mean (rat sensory neurones; 10^−8 M, 12 hours): 368.3 μm
- Neurites length per field, % Vehicle (rat sensory neurones; 10^−8 M, 24 hours): 174%
- Neurites length per field, Mean (rat sensory neurones; 10^−8 M, 24 hours): 384.3 μm
- Neurites length per field, % Vehicle (rat sensory neurones; 10^−9 M, 6 hours): 171%
- Neurites length per field, Mean (rat sensory neurones; 10^−9 M, 6 hours): 174.2 μm
- Neurites length per field, % Vehicle (rat sensory neurones; 10^−9 M, 6 hours, listed as 7β-OH EPIA): 149%
- Neurites length per field, % Vehicle (rat sensory neurones; 10^−9 M, 12 hours): 145%
- Neurites length per field, Mean (rat sensory neurones; 10^−9 M, 12 hours): 431.8 μm
- Neurites length per field, % Vehicle (rat sensory neurones; 10^−9 M, 24 hours): 147%
- Neurites length per field, Mean (rat sensory neurones; 10^−9 M, 24 hours): 324.9 μm
- 15d-PGJ2 in knee homogenates ([1]; 0.1 μg/kg day, D 20-50, Day 50): 78.96 ± 22.18 pg/mL
- Clinical Score (joint swelling) ([1]; 0.1 μg/kg day, D 20-50, Day 50): 3.10 ± 2.96
- PGE2/15d-PGJ2 ([1]; 0.1 μg/kg day, D 20-50, Day 50): 1.21
- PGE2 in knee homogenates ([1]; 0.1 μg/kg day, D 20-50, Day 50): 95.61 ± 34.65 pg/mL
- Histopathology Score (both paws on Day 50) ([1]; 1.0 μg/kg s.c. daily, treatment from Day 20-50): 0.60
- animals completely clear of histopathological change in the paw joints ([1]; 10.0 μg/kg, treatment day 0 to day 30): 9 out of 10
- Histopathology Score (both paws on Day 50) ([1]; 10.0 μg/kg, treatment from Day 0-30): 0.2*
- Histopathology Score (both paws on Day 50) ([1]; 10.0 μg/kg, treatment from Day 20-50): 0.44
- Histopathology Score (both paws on Day 50) ([1]; 100.0 μg/kg, treatment from Day 20-50): 0.85
- decrease in cell death (PC-12 cells; 1 μM): 26% and 25%
- decrease in cell death (PC-12 cells; 10 μM): 53% and 50%
